# Source: the supplement of paper PMC12592484
# Assays:
# Assay in all cases: drug sensitivity score (DSS2, normalised partial AUC of dose-response, 72 h CellTiter-Glo viability) (DSS (dimensionless)); higher = more sensitive (stronger growth inhibition / cytotoxicity); extreme values may be limits of the assay
# 22Rv1 = system: 22Rv1
# Method in brief: (§1)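 In BREEZE, the drug sensitivity score was derived as a partial area under a fitted logistic dose–response curve over the log of that curve's upper asymptote; a higher score marks a more sensitive response. The input came from low-passage primary prostate cancer-associated fibroblasts, PF179T, WPMY-1, LNCaP and 22Rv1 cells, each seeded into 384-well plates with compounds pre-dispensed at five doses spanning a 10,000-fold range. CellTiter-Glo 2.0 luminescence after 72 h gave viability, which was normalized to vehicle and positive-control wells.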
# CAF#1 = system: CAF#1 (primary prostate cancer-associated fibroblasts of myCAF-like type)
# Method in brief: as §1
# CAF#2 = system: CAF#2 (primary prostate cancer-associated fibroblasts of iCAF-like type)
# Method in brief: as §1
# CAF#3 = system: CAF#3 (primary prostate cancer-associated fibroblasts of myCAF-like type)
# Method in brief: as §1
# CAF#4 = system: CAF#4 (primary prostate cancer-associated fibroblasts of iCAF-like type)
# Method in brief: as §1
# CAF#5 = system: CAF#5 (primary prostate cancer-associated fibroblasts of myCAF-like type)
# Method in brief: as §1
# CAF#6 = system: CAF#6 (primary prostate cancer-associated fibroblasts of iCAF-like type)
# Method in brief: as §1
# CAF#7 = system: CAF#7 (primary prostate cancer-associated fibroblasts of myCAF-like type)
# Method in brief: as §1
# LNCAP = system: LNCAP
# Method in brief: as §1
# PF179T = system: PF179T
# Method in brief: as §1
# WPMY-1 = system: WPMY-1
# Method in brief: as §1
SMILES,drug sensitivity score (22Rv1),drug sensitivity score (CAF#1),drug sensitivity score (CAF#2),drug sensitivity score (CAF#3),drug sensitivity score (CAF#4),drug sensitivity score (CAF#5),drug sensitivity score (CAF#6),drug sensitivity score (CAF#7),drug sensitivity score (LNCAP),drug sensitivity score (PF179T),drug sensitivity score (WPMY-1)
Cc1ccc(-c2cc(C(F)(F)F)nn2-c2ccc(S(N)(=O)=O)cc2)cc1 [Celecoxib] (tested concentration range 1-10000 nM),0,0,0,0,0,0,0,0,1.2,0,0
C[C@@H]1COCCN1c1cc(C2([S@](C)(=N)=O)CC2)nc(-c2cc[nH]c3nccc2-3)n1 [Ceralasertib] (tested concentration range 2.5-25000 nM),10,6.6,9.3,6.7,8,7.8,6.2,6.3,10.7,8.1,13.9
CCS(=O)(=O)N1CCN(c2ccc(Nc3ncc(C(N)=O)c(NC4CC4)n3)cc2)CC1 [Cerdulatinib] (tested concentration range 1-10000 nM),0,6.1,3.7,0,0,3.8,0.4,0.1,4.4,2.7,8.8
Cc1cc(Nc2ncc(Cl)c(Nc3ccccc3S(=O)(=O)C(C)C)n2)c(OC(C)C)cc1C1CCNCC1 [Ceritinib] (tested concentration range 0.2-2500 nM),3.1,4.6,5.1,3,2.4,2.6,1.2,2.3,4.2,0.9,1
CCN(CC)CCCC(C)Nc1ccnc2cc(Cl)ccc12 (configuration not stated) [Chloroquine] (tested concentration range 10-100000 nM),11.2,5.7,9.8,8.4,8.6,7.4,8.2,8.6,9.8,9.5,10.4
N.N.[Cl][Pt][Cl] [Cisplatin] (tested concentration range 10-100000 nM),15,11.8,18.1,5.7,5,14.6,4.3,4.8,5.6,11.4,16
Nc1nc(Cl)nc2c1ncn2[C@H]1C[C@H](O)[C@@H](CO)O1 [Cladribine] (tested concentration range 0.1-1000 nM),1.7,0,2.7,0.5,0,0.1,0,0.6,5.2,3.9,5.1
Nc1nc(Cl)nc2c1ncn2[C@@H]1O[C@H](CO)[C@@H](O)[C@@H]1F [Clofarabine] (tested concentration range 1-10000 nM),13.9,6.5,10.6,5,4.6,7.3,6.1,9.3,18.5,10.6,16.9
CCN(CC)CCOc1ccc(C(=C(Cl)c2ccccc2)c2ccccc2)cc1 [Clomifene] (tested concentration range 1-10000 nM),5.7,2.3,5.8,4.2,4,3.7,4,3.7,4.8,6,5.5
O=C(c1ccc(F)c(F)c1Nc1ccc(I)cc1F)N1CC(O)([C@@H]2CCCCN2)C1 [Cobimetinib] (tested concentration range 0.1-1000 nM),9.6,0.5,3.9,0,1.6,1.9,3.3,5.3,0,2.1,4.2
COc1c(OCCCN2CCOCC2)ccc2c1N=C(NC(=O)c1cnc(N)nc1)N1CCN=C21 [Copanlisib] (tested concentration range 0.1-1000 nM),14.1,7.7,9.8,6,8.7,9.9,7,7.5,4.7,8.8,7.7
CC1(COc2ccc3c(c2)ncn3-c2ccc3cccc(N4CCC(N)CC4)c3n2)COC1 [Crenolanib] (tested concentration range 1-10000 nM),4.9,8.9,7.3,7.5,3.2,9.3,7,3.5,4.4,4.7,7.2
